From patent EP3558896B1, “USE OF ARYL S[…] TRIAMIDE UREASE INHIBITORS WITH PHOSPHORUS-[…] FERTILIZERS” (BASF SE, priority 2016, dated 2018)

Assay: Decomposition of urease inhibitors on treated urea granules mixed with triple super phosphate (TSP) granules
Assay type: physicochemical
Conditions: after one day in the absence of TSP granules

Structure (SMILES) | decomposition of the urease inhibitors
CCCCNP(N)(N)=S [NBPT, N-n-butylthiophosphoric acid triamide] | no decomposition
CCCNP(N)(N)=S [NPPT, N-n-propylthiophosphoric acid triamide] | no decomposition
